Experimental findings from PubChem BioAssay AID366 (MTDP, 2006) are described below.

pIC50: −log10 of the molar value. The source made the active and inactive calls. The rule behind the calls is not given here.

For the assay, the target named is Ribonuclease H1 (Homo sapiens) (UniProt O60930). Nature of the assay: human RNase H1 inhibitors, dose response, biochemical, FRET RNA/DNA duplex cleavage (AID 366).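 Note: potency is for inhibitors that lower RNA cleavage and so lower fluorescence.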 To be noted: fluorescence.
Sequence of Ribonuclease H1 (Homo sapiens) (O60930 whole entry, looked up): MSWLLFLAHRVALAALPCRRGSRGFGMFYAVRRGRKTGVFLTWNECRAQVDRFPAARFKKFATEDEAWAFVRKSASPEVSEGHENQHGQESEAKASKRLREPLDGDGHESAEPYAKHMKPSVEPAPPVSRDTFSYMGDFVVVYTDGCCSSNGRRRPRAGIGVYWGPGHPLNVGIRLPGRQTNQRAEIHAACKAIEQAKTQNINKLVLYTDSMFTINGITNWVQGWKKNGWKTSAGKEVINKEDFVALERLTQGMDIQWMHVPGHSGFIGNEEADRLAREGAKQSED
`COc1ccc(NC(=O)c2c(N)sc(-c3ccccc3)c2C)cc1`: the negative logarithm of the IC50 (pIC50) was 5.70.

In the case of `CN1CC(O)C2=CC(=O)C(=O)C=C21` (configuration not stated), the negative logarithm of the IC50 (pIC50) was 5.80. Take `COc1cc(C=O)ccc1OCCCOc1cccc(Oc2ccccc2)c1`: the pIC50 is 5.22. For `COc1cc([C@@H]2c3cc4c(cc3C[C@H]3COC(=O)[C@@H]32)OCO4)cc(OC)c1O`, the negative-log IC50 (pIC50) was 5.74. On to `C=C/C(C)=C/C[C@]1(C)[C@H](C)CC[C@@]23C(=C[C@H](OC(=O)c4ccc(O)c(OC)c4)C[C@@H]12)[C@@H](OC(C)=O)O[C@H]3OC(C)=O`, for which the pIC50 was 5.40. As for `O=C(Nc1ccc(N2CCN(C(=O)c3ccccc3)CC2)cc1)c1ccc(-c2ccccc2)cc1`, the negative-log IC50 (pIC50) was 6.46. With `CCOc1ccc(NC(=O)c2c(NC(=O)c3ccccc3)sc3c2CCCCC3)cc1`, the pIC50 was 5.96. On to `O=C1O/C(=C(/C(=O)O)c2ccc(O)cc2)C(O)=C1c1cc2c3c(c(O)cc(C4=C(O)/C(=C(\C(=O)O)c5ccc(O)cc5)OC4=O)c3c1)OC2=O`, for which the pIC50 was 6.22.

Regarding `COc1cccc(-c2nc3cc(NC(=O)/C=C\c4ccccc4)ccc3o2)c1`, the pIC50 was 6.10.

Consider `O=C(O)C1CCCCC1c1c2ccc(=O)c(O)c-2oc2c(O)c(O)ccc12` (configuration not stated), for which the pIC50 was 7.00. Consider `CC1=C(C)CC(C(=O)Nc2ccc(N3C(=O)c4ccccc4C3=O)cc2)C(C(=O)O)C1` (configuration not stated), for which the IC50 result was “inactive”. Take `Cc1cc(C)c2c(=O)[nH]c(SCC(=O)c3ccc(O)c(O)c3)nc2n1`: the negative logarithm of the IC50 (pIC50) is 5.05.

Turning to `COc1c(OC)c(O)c2c(=O)cc(-c3ccc(O)c(O)c3)oc2c1OC`, the IC50 result is “inactive”. On the same count and under the same terms, the same measure for `O=C1C(Cl)=C(NC(=O)c2ccccc2)C(=O)C(Cl)=C1NC(=O)c1ccccc1`: “inactive”. As to `COc1ccc(-c2c(C#N)c(N)nc(SCC(=O)c3ccc(O)c(O)c3)c2C#N)cc1`, the negative-log IC50 (pIC50) is 5.96. In the case of `Cc1ccc(C(=O)Nc2sc(C)c(C)c2C(N)=O)cc1`, the negative logarithm of the IC50 (pIC50) is 6.10. Still for that read-out and setting: the figure for `C[C@]12CC[C@H]3[C@@H](CCC4=CC(=O)CC[C@@]43C)[C@@H]1CC[C@@H]2C(=O)COS(=O)(=O)c1ccc(Br)cc1` is 5.96; for `O=C1CC(=O)c2ccc3c4c(ccc1c24)C(=O)CC3=O` it is 6.40; for `O=C1C=CC2=C3c4cc(O)c(O)cc4CC3(O)COC2=C1O` (configuration not stated) it is 6.70. Still for that read-out and setting: the figure for `Cc1cc(-c2ccco2)c(C#N)c(SCC(=O)c2ccc(O)c(O)c2)n1` is 5.74; for `COC(=O)c1cc2c3c(ccc2[nH]1)N(C(=O)c1cc2c4c(ccc2[nH]1)N(C(=O)c1cc2c5c(ccc2[nH]1)N(C(N)=O)CC5)CC4)CC3` it is 6.10; for `O=C1NC(=S)N(c2ccc(Cl)cc2)C(=O)/C1=C/c1ccc(Br)o1` it is 6.22. On the same count and under the same terms, the figure for `O=C1c2ccccc2C(=O)c2c(NC3CCCCC3)ccc(Nc3ccc(S(=O)(=O)O)cc3)c21` is 5.66; for `NC(=O)c1c(NC(=O)COc2ccccc2)sc2c1CCCCC2` it is 5.42. For the compound `CN(C)CS/C(N)=N/C(O)C(Cl)(Cl)Cl` (configuration not stated), the IC50 result was “inactive”. Take `Cc1c(O)c(Br)c(C)c(O)c1Br` (tested in a mixture with another compound): the IC50 entry was “inactive”. Regarding `CC1=c2c(oc3cc(O)c(Nc4c(C)cc(O)cc4O)c(C)c23)=CC(=O)C1=Nc1c(C)cc(O)cc1O`, the pIC50 is 6.52. `C=C1C(=O)O[C@@H]2/C=C(\C)CC/C=C(\C(=O)O)CC/C=C(\C)CC[C@H]12`: the pIC50 was 5.51. For the compound `Nc1c(S(=O)(=O)O)cc(Nc2cccc(S(N)(=O)=O)c2)c2c1C(=O)c1ccccc1C2=O`, the pIC50 was 5.59. Turning to `Oc1cc(CN2COc3ccccc32)c(O)cc1CNC1CCCCC1`, the IC50 result is “inactive”. In the case of `O=C1NC(=O)/C(=C/c2ccc(-c3ccc(O)c(C(=O)O)c3)o2)S1`, the negative-log IC50 (pIC50) was 6.70. As to `Cc1ccccc1-n1c(O)c(C=C2C=CC=N2)c(=O)[nH]c1=S`, the negative logarithm of the IC50 (pIC50) was 5.30.

Turning to `CC(=O)O[C@H](C)[C@@H]1C2=C(C(=O)C[C@]1(C)O)C(=O)c1c(ccc(-c3ccc4c(c3O)C(=O)C3=C(C4=O)[C@@H]([C@@H](C)OC(C)=O)[C@@](C)(O)CC3=O)c1O)C2=O`, the negative-log IC50 (pIC50) was 5.22. Still for that read-out and setting: the figure for `COC([CH2][Hg][n]1cnc2c1c(=O)n(C)c(=O)n2C)CN1C(=O)c2ccccc2S1(=O)=O` (configuration not stated) is 5.48.

As for `COc1ccccc1NC(=O)c1c(NC(=O)Cc2ccccc2)sc2c1CCCCC2`, the pIC50 is 6.32.

`C=Cc1c(C)c2cc3[nH]c(cc4nc(cc5nc(cc1[nH]2)C(C)=C5CCC(=O)O)C(CCC(=O)O)=C4C)c(C)c3C=C`: the pIC50 was 6.70. For the compound `O=c1oc2ccccc2c(O)c1/C=C1\C=Nc2ccccc21`, the pIC50 was 5.01. Same read-out and setting: the same measure for `O=C(Oc1ccccc1)Oc1c(Cl)cc2oc(=O)sc2c1Cl`: 5.52; for `O=C1NC(=S)N(c2cccc(Cl)c2)C(=O)/C1=C\C=C\c1ccco1`: 5.22.

With `COc1cccc2cc(C(N)=O)c(=O)oc12`, the IC50 entry was “inactive”. As for `CC(C)=CCc1ccc(O)c(=O)cc1C(C)C`, the IC50 result is “inactive”. On to `Ic1ccc2c(c1)N(c1ccccc1)c1cc(N=c3ccc4nc5ccc(I)cc5n(-c5ccccc5)c-4c3)ccc1N2`, for which the pIC50 is 6.52. Consider `O=[N+]([O-])c1ccc2c(N=Nc3ccc4ccccc4c3O)c(O)cc(S(=O)(=O)O)c2c1`, for which the pIC50 was 6.52.

With `Cc1cccc(NCC(=O)N/N=C\c2c(Br)cc(Br)c(O)c2Br)c1`, the IC50 result is “inactive”.

Turning to `C[N+](C)=c1ccc2nc3c(cc(Nc4ccccc4)c4ccccc43)oc-2c1`, the pIC50 was 5.80.

As for `CCCc1cc(=O)oc2c3c(c4c(c12)OC(C)(C)C=C4)O[C@H](C)[C@@H](C)[C@H]3OC`, the pIC50 was 5.31. Consider `Cc1onc(-c2ccccc2)c1C(=O)Nc1sc(C)c(C)c1C(N)=O`, for which the negative logarithm of the IC50 (pIC50) is 5.10.

The pIC50 is −log10 of the IC50, conventionally taken in molar units.
